From paper PMC5609876, “Metformin selectively targets redox control of complex I energy transduction” (Redox Biology, 2017)
Where two headings read alike, the source gives them in different places.

What was measured:
[1] = molecular target: T1, complex I; assay: complex I NADH:paraquat electron transfer, microplate activity assay (ubiquinone replaced by paraquat); type: biochemical, Bos taurus
T1 construct: gene NDUFV1; MitoTox Complex I OXPHOS Activity Microplate Assay (ab109903)

[2] = system: T2, complex I; assay: NADH oxidation in rat liver submitochondrial particles; type: biochemical
T2 construct: gene Ndufv1; submitochondrial particles from rat liver

[H]/N=C(/N)NCCCCCNC(=N)N [DG5]
IC50 [1]: 12 mM

[H]/N=C(/N)N/C(=N/[H])NCCc1ccccc1 [phenformin]
NADH oxidation in rat liver submitochondrial particles [2]: Effects of both phenformin and DG5 on NADH oxidation were observed at much lower concentrations than responses to metformin

CN(C)C(=N)N=C(N)N [metformin]
IC50 ([1]; read-out: IC50): 91 mM
